Values quoted from earlier work, collected in patent US20050232952A1, “Self emulsifying drug delivery systems for poorly soluble drugs” (priority 2002, published 2005).

Conditions: humans

- systemic bioavailability after oral paclitaxel administration: less than 6%
SMILES: CC(=O)O[C@H]1C(=O)[C@@]2(C)[C@H]([C@H](OC(=O)c3ccccc3)[C@]3(O)C[C@H](OC(=O)[C@H](O)[C@@H](NC(=O)c4ccccc4)c4ccccc4)C(C)=C1C3(C)C)[C@]1(OC(C)=O)CO[C@@H]1C[C@@H]2O [paclitaxel, Paclitaxel]
